For test [1], the target named is T1, Choline O-acetyltransferase (Gallus gallus) (UniProt Q90YJ9).
T1 sequence (whole entry): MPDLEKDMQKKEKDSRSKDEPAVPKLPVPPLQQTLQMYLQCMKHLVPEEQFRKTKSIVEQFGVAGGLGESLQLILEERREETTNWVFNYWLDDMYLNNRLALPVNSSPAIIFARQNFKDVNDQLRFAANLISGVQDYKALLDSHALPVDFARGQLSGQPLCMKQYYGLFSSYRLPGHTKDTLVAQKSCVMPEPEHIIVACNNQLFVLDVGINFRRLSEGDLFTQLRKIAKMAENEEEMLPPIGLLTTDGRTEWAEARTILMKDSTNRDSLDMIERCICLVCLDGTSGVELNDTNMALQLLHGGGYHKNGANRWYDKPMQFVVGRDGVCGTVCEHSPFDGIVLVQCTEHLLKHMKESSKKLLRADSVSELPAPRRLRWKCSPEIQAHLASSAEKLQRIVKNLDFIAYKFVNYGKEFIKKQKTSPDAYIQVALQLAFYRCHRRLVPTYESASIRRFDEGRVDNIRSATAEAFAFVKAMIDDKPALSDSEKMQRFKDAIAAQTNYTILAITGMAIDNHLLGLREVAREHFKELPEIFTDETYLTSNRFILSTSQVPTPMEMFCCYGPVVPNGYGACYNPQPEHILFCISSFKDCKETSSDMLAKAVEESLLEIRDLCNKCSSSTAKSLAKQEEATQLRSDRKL
Briefly: Inhibition of chick optic lobe choline acetyltransferase (ChAT) at 10e-4 M.

Test [2] addresses T2, Choline O-acetyltransferase (Gallus gallus, UniProt Q90YJ9).
T2 sequence (Q90YJ9 whole entry): T1 sequence (whole entry)
Briefly: Compound was tested in vitro for inhibitory activity against chick optic lobe choline acetyltransferase (ChAT).

Test [3] has as its target T3, Choline O-acetyltransferase (Rattus norvegicus, UniProt P32738).
T3 sequence (P32738 whole entry): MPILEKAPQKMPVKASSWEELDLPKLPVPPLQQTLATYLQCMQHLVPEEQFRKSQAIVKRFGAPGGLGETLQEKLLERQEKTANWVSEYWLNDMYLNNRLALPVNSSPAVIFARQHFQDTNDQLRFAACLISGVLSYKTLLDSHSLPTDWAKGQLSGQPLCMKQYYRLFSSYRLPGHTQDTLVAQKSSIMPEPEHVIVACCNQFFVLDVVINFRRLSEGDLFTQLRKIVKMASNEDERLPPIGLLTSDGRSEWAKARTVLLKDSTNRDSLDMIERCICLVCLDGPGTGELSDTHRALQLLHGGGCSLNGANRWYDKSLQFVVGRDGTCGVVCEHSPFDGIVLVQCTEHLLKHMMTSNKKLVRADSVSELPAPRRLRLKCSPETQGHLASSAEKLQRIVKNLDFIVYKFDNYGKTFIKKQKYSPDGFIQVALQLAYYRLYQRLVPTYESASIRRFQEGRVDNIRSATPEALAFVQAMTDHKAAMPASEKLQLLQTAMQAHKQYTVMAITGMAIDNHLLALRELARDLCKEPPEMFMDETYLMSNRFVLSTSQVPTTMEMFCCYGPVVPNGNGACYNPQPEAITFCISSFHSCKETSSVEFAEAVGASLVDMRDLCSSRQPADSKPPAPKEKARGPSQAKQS
Briefly: Compound was tested in vitro for inhibitory activity against rat choline acetyltransferase (ChAT).

Test [4] concerns the target T2, Choline O-acetyltransferase. Briefly: Compound was tested in vitro for inhibitory activity against chick choline acetyltransferase (ChAT).

This passage reports inhibition and IC50 results from ChEMBL document CHEMBL1126369, “(E)-1-alkyl-[2-(1H-azol-2-yl)vinyl]pyridinium salts: theoretical analysis, synthesis and evaluation of their interaction with choline acetyltransferase” (Bioorg Med Chem Lett, 1992).

Broadly, the inhibition is the change of the read-out against control, counted positive when it falls. The low end stands for a weak effect, the high end for a strong effect. By IC50 is commonly meant the concentration that gives 50% inhibition.

`CCCC[n+]1ccc(/C=C/c2nc3cc(C)c(C)cc3[nH]2)cc1`: in test [1], the inhibition is less than 1%. On to `CCCC[n+]1cccc(/C=C/c2nc3cc(C)c(C)cc3[nH]2)c1`, for which the inhibition in test [1] was less than 1%. Regarding `Cc1cc2nc(/C=C/c3ccncc3)[nH]c2cc1C`, the inhibition in test [1] was less than 1%. For `Cc1cc2nc(/C=C/c3cc[n+](C)cc3)[nH]c2cc1C`, the inhibition in test [1] is less than 1%.

With `Cc1cc2nc(/C=C/c3ccc[n+](C)c3)[nH]c2cc1C`, the inhibition in test [1] is less than 1%. As to `C[n+]1ccc(/C=C/c2cccc3ccccc23)cc1`, in test [1], the inhibition worked out at 73%. This molecule showed an IC50 in test [2] of 40 µM.

`C(=C\c1cccc2ccccc12)/c1ccncc1` yielded an inhibition in test [1] of 5%.

The molecule `CCCC[n+]1ccc(/C=C/c2ncc[nH]2)cc1` showed an inhibition in test [1] of less than 1%.

`CCCCCCCCCC[n+]1ccc(/C=C/c2nc3cc(C)c(C)cc3[nH]2)cc1`: the inhibition in test [1] was less than 1%. Molecule `CCC[n+]1ccc(/C=C/c2cccc3ccccc23)cc1` displayed an inhibition in test [1] of 80%. Also, the IC50 in test [3] came to 30 µM; in test [4] it was 58 µM; in test [2] it was 29 µM. Regarding `C[n+]1ccc(/C=N/c2nc3ccccc3[nH]2)cc1`, the inhibition in test [1] was less than 1%. As to `Cc1cc2nc(/C=C/c3cccnc3)[nH]c2cc1C`, the inhibition in test [1] was less than 1%. With `NC(=O)C[n+]1ccc(/C=C/c2cccc3ccccc23)cc1`, in test [1], the inhibition was determined as 78%. Besides, the IC50 in test [2] is 37 µM.
